Source: ChEMBL document CHEMBL1155809, “Design, synthesis, and antihepatocellular carcinoma activity of nitric oxide releasing derivatives of oleanolic acid” (J Med Chem, 2008)
Activity calls are given as the source filed them. No cut-off for these calls is given here.

Columns and labels:
Hep 3B2 [1] = experiment: Cytotoxicity against human Hep3B cells assessed as cell death after 24 hrs by lactate dehydrogenase release assay; format: functional, cell-based
HepG2 [2] = experiment: Cytotoxicity against human HepG2 cells assessed as cell death after 24 hrs by lactate dehydrogenase release assay; format: functional, cell-based
MCF7 [3] = experiment: Cytotoxicity against human MCF7 cells assessed as cell death by lactate dehydrogenase release assay; format: functional, cell-based
HEK293 [4] = experiment: Cytotoxicity against HEK293 cells assessed as cell death by lactate dehydrogenase release assay; format: functional, cell-based; details: Homo sapiens
Hep 3B2 [5] = experiment: Cytotoxicity against human Hep3B cells assessed as levels of nitric oxide production at 100 uM after 30 to 300 mins by colorimetric assay; format: functional, cell-based
HeLa [6] = experiment: Cytotoxicity against human HeLa cells assessed as levels of nitric oxide production at 100 uM after 30 to 300 mins by colorimetric assay; format: functional, cell-based
PC-3 [7] = experiment: Cytotoxicity against human PC3 cells assessed as levels of nitric oxide production at 100 uM after 30 to 300 mins by colorimetric assay; format: functional, cell-based
MCF7 [8] = experiment: Cytotoxicity against human MCF7 cells assessed as levels of nitric oxide production at 100 uM after 30 to 300 mins by colorimetric assay; format: functional, cell-based
HEK293 [9] = experiment: Cytotoxicity against human HEK293 cells assessed as levels of nitric oxide production at 100 uM after 30 to 300 mins by colorimetric assay; format: functional, cell-based
HepG2 [10] = experiment: Cytotoxicity against human HepG2 cells assessed as levels of nitric oxide production at 100 uM after 30 to 300 mins by colorimetric assay; format: functional, cell-based
HepG2 [11] = experiment: Cytotoxicity against human HepG2 cells assessed as cell death at 1 uM after 24 hrs by lactate dehydrogenase release assay; format: functional
HepG2 [12] = experiment: Cytotoxicity against human HepG2 cells assessed as cell death at 0.1 uM after 24 hrs by lactate dehydrogenase release assay; format: functional
HepG2 [13] = experiment: Cytotoxicity against human HepG2 cells assessed as cell death at 0.01 uM after 24 hrs by lactate dehydrogenase release assay; format: functional
HepG2 [14] = experiment: Cytotoxicity against human HepG2 cells assessed as cell death at 0.001 uM after 24 hrs by lactate dehydrogenase release assay; format: functional
[15] = Cytotoxicity against human Hep3B cells assessed as cell death at 1 uM after 24 hrs by lactate dehydrogenase release assay; format: functional, Hep 3B2
[16] = Cytotoxicity against human Hep3B cells assessed as cell death at 0.1 uM after 24 hrs by lactate dehydrogenase release assay; format: functional, Hep 3B2
[17] = Cytotoxicity against human Hep3B cells assessed as cell death at 0.01 uM after 24 hrs by lactate dehydrogenase release assay; format: functional, Hep 3B2
[18] = Cytotoxicity against human Hep3B cells assessed as cell death at 0.001 uM after 24 hrs by lactate dehydrogenase release assay; format: functional, Hep 3B2
HeLa [19] = experiment: Cytotoxicity against human HeLa cells assessed as cell death by lactate dehydrogenase release assay; format: functional, cell-based
PC-3 [20] = experiment: Cytotoxicity against human PC3 cells assessed as cell death by lactate dehydrogenase release assay; format: functional, cell-based

Structure (SMILES): CC1(C)CC[C@]2(C(=O)OCc3ccccc3)CC[C@]3(C)C(=CC[C@@H]4[C@@]5(C)CC[C@H](OC(=O)CCC(=O)OCCCCOc6no[n+]([O-])c6S(=O)(=O)c6ccccc6)C(C)(C)[C@@H]5CC[C@]43C)[C@@H]2C1
- Activity (Hep 3B2 [1]): inactive
- Activity (HepG2 [2]): inactive

Structure (SMILES): CC1(C)CC[C@]2(C(=O)OCc3ccccc3)CC[C@]3(C)C(=CC[C@@H]4[C@@]5(C)CC[C@H](OC(=O)CCC(=O)OCc6c(-c7ccccc7)no[n+]6[O-])C(C)(C)[C@@H]5CC[C@]43C)[C@@H]2C1
- Activity (Hep 3B2 [1]): inactive
- Activity (HepG2 [2]): inactive

Structure (SMILES): CC1(C)CC[C@]2(C(=O)O)CC[C@]3(C)C(=CC[C@@H]4[C@@]5(C)CC[C@H](OC(=O)CCC(=O)OCc6ccc(Oc7no[n+]([O-])c7S(=O)(=O)c7ccccc7)cc6)C(C)(C)[C@@H]5CC[C@]43C)[C@@H]2C1
- Activity (Hep 3B2 [1]): inactive
- Activity (HepG2 [2]): inactive

Structure (SMILES): CC1(C)CC[C@]2(C(=O)O)CC[C@]3(C)C(=CC[C@@H]4[C@@]5(C)CC[C@H](OC(=O)CCC(=O)OCc6ccc(OCc7c(-c8ccccc8)no[n+]7[O-])cc6)C(C)(C)[C@@H]5CC[C@]43C)[C@@H]2C1
- Activity (Hep 3B2 [1]): inactive
- Activity (HepG2 [2]): inactive

Structure (SMILES): CC1(C)CC[C@]2(C(=O)O)CC[C@]3(C)C(=CC[C@@H]4[C@@]5(C)CC[C@H](OC(=O)CCC(=O)OCc6cccc(OCc7c(-c8ccccc8)no[n+]7[O-])c6)C(C)(C)[C@@H]5CC[C@]43C)[C@@H]2C1
- Activity (Hep 3B2 [1]): inactive
- Activity (HepG2 [2]): inactive

Structure (SMILES): CC1(C)CC[C@]2(C(=O)OCc3ccc(Oc4no[n+]([O-])c4S(=O)(=O)c4ccccc4)cc3)CC[C@]3(C)C(=CC[C@@H]4[C@@]5(C)CC[C@H](OC(=O)C(F)(F)F)C(C)(C)[C@@H]5CC[C@]43C)[C@@H]2C1
- Activity (Hep 3B2 [1]): inactive
- Activity (HepG2 [2]): inactive

Structure (SMILES): CC1(C)CC[C@]2(C(=O)O)CC[C@]3(C)C(=CC[C@@H]4[C@@]5(C)CC[C@H](OC(=O)CCC(=O)OCc6c(-c7ccccc7)no[n+]6[O-])C(C)(C)[C@@H]5CC[C@]43C)[C@@H]2C1
- Activity (MCF7 [3]): inactive
- Activity (HEK293 [4]): inactive
- Activity (Hep 3B2 [5]): Active
- Activity (HeLa [6]): inactive
- Activity (PC-3 [7]): inactive
- Activity (MCF7 [8]): inactive
- Activity (HEK293 [9]): inactive
- Activity (HepG2 [10]): Active
- Activity (HepG2 [11]): 0%
- Activity (HepG2 [12]): 0%
- Activity (HepG2 [13]): 0%
- Activity (HepG2 [14]): 0%
- Activity [15]: 0%
- Activity [16]: 0%
- Activity [17]: 0%
- Activity [18]: 0%
- Activity (HeLa [19]): inactive
- Activity (PC-3 [20]): inactive

Structure (SMILES): CC1(C)CC[C@]2(C(=O)OCc3cccc(OCc4c(-c5ccccc5)no[n+]4[O-])c3)CC[C@]3(C)C(=CC[C@@H]4[C@@]5(C)CC[C@H](O)C(C)(C)[C@@H]5CC[C@]43C)[C@@H]2C1
- Activity (Hep 3B2 [1]): inactive
- Activity (HepG2 [2]): inactive

Structure (SMILES): CC1(C)CC[C@]2(C(=O)OCCCCOc3no[n+]([O-])c3S(=O)(=O)c3ccccc3)CC[C@]3(C)C(=CC[C@@H]4[C@@]5(C)CC[C@H](OC(=O)C(F)(F)F)C(C)(C)[C@@H]5CC[C@]43C)[C@@H]2C1
- Activity (Hep 3B2 [1]): inactive
- Activity (HepG2 [2]): inactive

Structure (SMILES): CC1(C)CC[C@]2(C(=O)O)CC[C@]3(C)C(=CC[C@@H]4[C@@]5(C)CC[C@H](OC(=O)CCC(=O)OCCOCCOc6no[n+]([O-])c6S(=O)(=O)c6ccccc6)C(C)(C)[C@@H]5CC[C@]43C)[C@@H]2C1
- Activity (MCF7 [3]): inactive
- Activity (HEK293 [4]): inactive
- Activity (Hep 3B2 [5]): Active
- Activity (HeLa [6]): inactive
- Activity (PC-3 [7]): inactive
- Activity (MCF7 [8]): inactive
- Activity (HEK293 [9]): inactive
- Activity (HepG2 [10]): Active
- Activity (HepG2 [11]): 95.63%
- Activity (HepG2 [12]): 67.96%
- Activity (HepG2 [13]): 17.32%
- Activity (HepG2 [14]): 2.7%
- Activity [15]: 88.65%
- Activity [16]: 56.43%
- Activity [17]: 9.78%
- Activity [18]: 0%
- Activity (HeLa [19]): inactive
- Activity (PC-3 [20]): inactive

Structure (SMILES): CC1(C)CC[C@]2(C(=O)OCCOCCOc3no[n+]([O-])c3S(=O)(=O)c3ccccc3)CC[C@]3(C)C(=CC[C@@H]4[C@@]5(C)CC[C@H](OC(=O)C(F)(F)F)C(C)(C)[C@@H]5CC[C@]43C)[C@@H]2C1
- Activity (Hep 3B2 [1]): inactive
- Activity (HepG2 [2]): inactive

Structure (SMILES): CC1(C)CC[C@]2(C(=O)OCc3c(-c4ccccc4)no[n+]3[O-])CC[C@]3(C)C(=CC[C@@H]4[C@@]5(C)CC[C@H](O)C(C)(C)[C@@H]5CC[C@]43C)[C@@H]2C1
- Activity (Hep 3B2 [1]): inactive
- Activity (HepG2 [2]): inactive

Structure (SMILES): CC1(C)CC[C@]2(C(=O)OCc3cccc(OCc4c(-c5ccccc5)no[n+]4[O-])c3)CC[C@]3(C)C(=CC[C@@H]4[C@@]5(C)CC[C@H](OC(=O)C(F)(F)F)C(C)(C)[C@@H]5CC[C@]43C)[C@@H]2C1
- Activity (Hep 3B2 [1]): inactive
- Activity (HepG2 [2]): inactive

Structure (SMILES): CCOC(=O)[C@]12CCC(C)(C)C[C@H]1C1=CC[C@@H]3[C@@]4(C)CC[C@H](OC(=O)CCC(=O)OCc5ccc(OCc6c(-c7ccccc7)no[n+]6[O-])cc5)C(C)(C)[C@@H]4CC[C@@]3(C)[C@]1(C)CC2
- Activity (Hep 3B2 [1]): inactive
- Activity (HepG2 [2]): inactive

Structure (SMILES): CCOC(=O)[C@]12CCC(C)(C)C[C@H]1C1=CC[C@@H]3[C@@]4(C)CC[C@H](OC(=O)CCC(=O)OCc5cccc(OCc6c(-c7ccccc7)no[n+]6[O-])c5)C(C)(C)[C@@H]4CC[C@@]3(C)[C@]1(C)CC2
- Activity (Hep 3B2 [1]): inactive
- Activity (HepG2 [2]): inactive

Structure (SMILES): CC1(C)CC[C@]2(C(=O)OCc3ccc(OCc4c(-c5ccccc5)no[n+]4[O-])cc3)CC[C@]3(C)C(=CC[C@@H]4[C@@]5(C)CC[C@H](OC(=O)C(F)(F)F)C(C)(C)[C@@H]5CC[C@]43C)[C@@H]2C1
- Activity (Hep 3B2 [1]): inactive
- Activity (HepG2 [2]): inactive

Structure (SMILES): CCOC(=O)[C@]12CCC(C)(C)C[C@H]1C1=CC[C@@H]3[C@@]4(C)CC[C@H](OC(=O)CCC(=O)OCCOCCOc5no[n+]([O-])c5S(=O)(=O)c5ccccc5)C(C)(C)[C@@H]4CC[C@@]3(C)[C@]1(C)CC2
- Activity (Hep 3B2 [1]): inactive
- Activity (HepG2 [2]): inactive

Structure (SMILES): CC1(C)CC[C@]2(C(=O)OCc3ccccc3)CC[C@]3(C)C(=CC[C@@H]4[C@@]5(C)CC[C@H](OC(=O)CCC(=O)OCc6cccc(Oc7no[n+]([O-])c7S(=O)(=O)c7ccccc7)c6)C(C)(C)[C@@H]5CC[C@]43C)[C@@H]2C1
- Activity (Hep 3B2 [1]): inactive
- Activity (HepG2 [2]): inactive

Structure (SMILES): CC1(C)CC[C@]2(C(=O)OCc3ccccc3)CC[C@]3(C)C(=CC[C@@H]4[C@@]5(C)CC[C@H](OC(=O)CCC(=O)OCc6ccc(Oc7no[n+]([O-])c7S(=O)(=O)c7ccccc7)cc6)C(C)(C)[C@@H]5CC[C@]43C)[C@@H]2C1
- Activity (Hep 3B2 [1]): inactive
- Activity (HepG2 [2]): inactive

Structure (SMILES): CC1(C)CC[C@]2(C(=O)OCc3c(-c4ccccc4)no[n+]3[O-])CC[C@]3(C)C(=CC[C@@H]4[C@@]5(C)CC[C@H](OC(=O)C(F)(F)F)C(C)(C)[C@@H]5CC[C@]43C)[C@@H]2C1
- Activity (Hep 3B2 [1]): inactive
- Activity (HepG2 [2]): inactive

Structure (SMILES): CC1(C)CC[C@]2(C(=O)O)CC[C@]3(C)C(=CC[C@@H]4[C@@]5(C)CC[C@H](OC(=O)CCC(=O)Oc6cccc(OCc7c(-c8ccccc8)no[n+]7[O-])c6)C(C)(C)[C@@H]5CC[C@]43C)[C@@H]2C1
- Activity (Hep 3B2 [1]): inactive
- Activity (HepG2 [2]): inactive

Structure (SMILES): CC1(C)CC[C@]2(C(=O)OCCCCOc3no[n+]([O-])c3S(=O)(=O)c3ccccc3)CC[C@]3(C)C(=CC[C@@H]4[C@@]5(C)CC[C@H](O)C(C)(C)[C@@H]5CC[C@]43C)[C@@H]2C1
- Activity (Hep 3B2 [1]): inactive
- Activity (HepG2 [2]): inactive

Structure (SMILES): CC1(C)CC[C@]2(C(=O)OCC#CCOc3no[n+]([O-])c3S(=O)(=O)c3ccccc3)CC[C@]3(C)C(=CC[C@@H]4[C@@]5(C)CC[C@H](OC(=O)C(F)(F)F)C(C)(C)[C@@H]5CC[C@]43C)[C@@H]2C1
- Activity (Hep 3B2 [1]): inactive
- Activity (HepG2 [2]): inactive

Structure (SMILES): CC(CCOc1no[n+]([O-])c1S(=O)(=O)c1ccccc1)OC(=O)CCC(=O)O[C@H]1CC[C@]2(C)[C@H]3CC=C4[C@@H]5CC(C)(C)CC[C@]5(C(=O)OCc5ccccc5)CC[C@@]4(C)[C@]3(C)CC[C@H]2C1(C)C (some centres not stated)
- Activity (Hep 3B2 [1]): inactive
- Activity (HepG2 [2]): inactive

Structure (SMILES): CCOC(=O)[C@]12CCC(C)(C)C[C@H]1C1=CC[C@@H]3[C@@]4(C)CC[C@H](OC(=O)CCC(=O)OC(C)CCOc5no[n+]([O-])c5S(=O)(=O)c5ccccc5)C(C)(C)[C@@H]4CC[C@@]3(C)[C@]1(C)CC2 (some centres not stated)
- Activity (Hep 3B2 [1]): inactive
- Activity (HepG2 [2]): inactive
